Laboratory results taken from patent US9765034B2, “5-halogenopyrazole biphenylcarboxamides” (BAYER CROPSCIENCE AG, priority 2012, dated 2017).

Test system: Alternaria brassicae
Assay: In vivo preventive test on Alternaria brassicae (leaf spot on radish)
Settings: radish plants, preventive spray, 500 ppm, grading 6 days after contamination
Experimental: Example: In Vivo Preventive Test on Alternaria brassicae (Leaf Spot on Radish) […] Radish plants (“Pernod Clair” variety), sown in starter cups on a 50/50 peat soil-pozzolana substrate and grown at 17° C., are treated at the cotyledon stage by spraying with the active ingredient prepared as described above. Plants, used as controls, are treated with the mixture of acetone/tween/DMSO/water not containing the active material. After 24 hours, the plants are contaminated by spraying the cotyledons with an aqueous suspension of Alternaria brassicae spores (50 000 spores per ml). The spores are collected from a 15-day-old culture. […] Grading (% of efficacy) is carried out 6 days after the contamination, in comparison with the control plants. Under these conditions, good (at least 70%) or total protection is observed at a dose of 500 ppm with the following compounds: […]

| Compound | Eff. % |
| --- | --- |
| CC#CCON=Cc1ccc(-c2ccccc2NC(=O)c2c(C(F)F)nn(C)c2Cl)cc1 [Example 22] | 75% |
| C#CCON=Cc1ccc(-c2ccccc2NC(=O)c2c(C(F)F)nn(C)c2Cl)cc1 [Example 5] | 88% |
| CON=Cc1ccc(-c2ccccc2NC(=O)c2c(C(F)F)nn(C)c2Cl)cc1C [Example 25] | 94% |
| CCON=Cc1ccc(-c2ccccc2NC(=O)c2c(C(F)F)nn(C)c2Cl)cc1F [Example 18] | 94% |
| CCON=Cc1ccc(-c2ccccc2NC(=O)c2c(C(F)F)nn(C)c2Cl)cc1 [Example 6] | 97% |
| C#CCON=C(C)c1ccc(-c2ccccc2NC(=O)c2c(C(F)F)nn(C)c2F)cc1 [Example 12] | 97% |
| CCON=Cc1ccc(-c2ccccc2NC(=O)c2c(C(F)F)nn(C)c2Cl)cc1C [Example 39] | 94% |

Test system: Botrytis cinerea
Assay: In vivo preventive test on Botrytis cinerea (grey mould)
Settings: gherkin plants, preventive spray, 500 ppm, grading 4 to 5 days after contamination
Experimental: Example: In Vivo Preventive Test on Botrytis cinerea (Grey Mould) […] Gherkin plants (“Vert petit de Paris” variety), sown in starter cups on a 50/50 peat soil-pozzolana substrate and grown at 24° C., are treated at the Z11 cotyledon stage by spraying with the active ingredient prepared as described above. Plants, used as controls, are treated with the mixture of acetone/tween/DMSO/water not containing the active material. After 24 hours, the plants are contaminated by spraying the cotyledons with an aqueous suspension of cryopreserved Botrytis cinerea spores (50 000 spores per ml). The spores are suspended in a nutrient solution composed of 10 g/L of PDB, 50 g/L of D-Fructose, 2 g/L of NH4NO3 and 1 g/L of KH2PO4. […] Grading (% of efficacy) is carried out 4 to 5 days after the contamination, in comparison with the control plants. Under these conditions, good (at least 70%) or total protection is observed at a dose of 500 ppm with the following compounds: […]

| Compound | Eff. % |
| --- | --- |
| CC#CCON=Cc1ccc(-c2ccccc2NC(=O)c2c(C(F)F)nn(C)c2Cl)cc1 [Example 22] | 98% |
| C#CCON=Cc1ccc(-c2ccccc2NC(=O)c2c(C(F)F)nn(C)c2Cl)cc1 [Example 5] | 100% |
| CON=Cc1ccc(-c2ccccc2NC(=O)c2c(C(F)F)nn(C)c2Cl)cc1C [Example 25] | 98% |
| CCON=Cc1ccc(-c2ccccc2NC(=O)c2c(C(F)F)nn(C)c2Cl)cc1F [Example 18] | 70% |
| CCON=Cc1ccc(-c2ccccc2NC(=O)c2c(C(F)F)nn(C)c2Cl)cc1 [Example 6] | 93% |
| C#CCON=C(C)c1ccc(-c2ccccc2NC(=O)c2c(C(F)F)nn(C)c2F)cc1 [Example 12] | 85% |
| CCON=Cc1ccc(-c2ccccc2NC(=O)c2c(C(F)F)nn(C)c2Cl)cc1C [Example 39] | 99% |

Test system: Pyrenophora teres
Assay: In vivo preventive test on Pyrenophora teres (net blotch on barley)
Settings: barley plants, preventive spray, 500 ppm, grading 14 days after contamination
Experimental: Example: In Vivo Preventive Test on Pyrenophora teres (Net Blotch on Barley) […] Barley plants (“Plaisant” variety), sown in starter cups on a 50/50 peat soil-pozzolana substrate and grown at 22° C., are treated at the 1-leaf stage (10 cm height) by spraying with the active ingredient prepared as described above. Plants, used as controls, are treated with the mixture of acetone/tween/DMSO/water not containing the active material. After 24 hours, the plants are contaminated by spraying the leaves with an aqueous suspension of Pyrenophora teres spores (12 000 spores per ml). The spores are collected from a 12-day-old culture. […] Grading (% of efficacy) is carried out 14 days after the contamination, in comparison with the control plants. Under these conditions, good (at least 70%) or total protection is observed at a dose of 500 ppm with the following compounds: […]

| Compound | Eff. % |
| --- | --- |
| C#CCON=Cc1ccc(-c2ccccc2NC(=O)c2c(C(F)F)nn(C)c2Cl)cc1 [Example 5] | 86% |
| CON=Cc1ccc(-c2ccccc2NC(=O)c2c(C(F)F)nn(C)c2Cl)cc1C [Example 25] | 100% |
| CCON=Cc1ccc(-c2ccccc2NC(=O)c2c(C(F)F)nn(C)c2Cl)cc1F [Example 18] | 100% |
| CCON=Cc1ccc(-c2ccccc2NC(=O)c2c(C(F)F)nn(C)c2Cl)cc1 [Example 6] | 100% |
| C#CCON=C(C)c1ccc(-c2ccccc2NC(=O)c2c(C(F)F)nn(C)c2F)cc1 [Example 12] | 80% |
| CCON=Cc1ccc(-c2ccccc2NC(=O)c2c(C(F)F)nn(C)c2Cl)cc1C [Example 39] | 100% |

Test system: Pyricularia oryzae
Assay: not given
Assay type: in vivo
Settings: rice plants, preventive spray, 500 ppm, grading 6 days after contamination

| Compound | Eff. % |
| --- | --- |
| C#CCON=Cc1ccc(-c2ccccc2NC(=O)c2c(C(F)F)nn(C)c2Cl)cc1 [Example 5] | 90% |
| CCON=Cc1ccc(-c2ccccc2NC(=O)c2c(C(F)F)nn(C)c2Cl)cc1 [Example 6] | 100% |

Test system: Puccinia recondita
Assay: In vivo preventive test on Puccinia recondita (brown rust on wheat)
Settings: wheat plants, preventive spray, 500 ppm, grading 12 days after contamination
Experimental: Example: In Vivo Preventive Test on Puccinia recondita (Brown Rust on Wheat) […] Wheat plants (“Scipion” variety), sown in starter cups on a 50/50 peat soil-pozzolana substrate and grown at 22° C., are treated at the 1-leaf stage (10 cm height) by spraying with the active ingredient prepared as described above. Plants, used as controls, are treated with the mixture of acetone/tween/DMSO/water not containing the active material. After 24 hours, the plants are contaminated by spraying the leaves with an aqueous suspension of Puccinia […] spores (100 000 spores per ml). […] Grading (% of efficacy) is carried out 12 days after the contamination, in comparison with the control plants. Under these conditions, good (at least 70%) or total protection is observed at a dose of 500 ppm with the following compounds: […]

| Compound | Eff. % |
| --- | --- |
| CC#CCON=Cc1ccc(-c2ccccc2NC(=O)c2c(C(F)F)nn(C)c2Cl)cc1 [Example 22] | 98% |
| C#CCON=Cc1ccc(-c2ccccc2NC(=O)c2c(C(F)F)nn(C)c2Cl)cc1 [Example 5] | 100% |
| CON=Cc1ccc(-c2ccccc2NC(=O)c2c(C(F)F)nn(C)c2Cl)cc1C [Example 25] | 100% |
| CCON=Cc1ccc(-c2ccccc2NC(=O)c2c(C(F)F)nn(C)c2Cl)cc1F [Example 18] | 97% |
| CCON=Cc1ccc(-c2ccccc2NC(=O)c2c(C(F)F)nn(C)c2Cl)cc1 [Example 6] | 100% |
| C#CCON=C(C)c1ccc(-c2ccccc2NC(=O)c2c(C(F)F)nn(C)c2F)cc1 [Example 12] | 98% |
| CCON=Cc1ccc(-c2ccccc2NC(=O)c2c(C(F)F)nn(C)c2Cl)cc1C [Example 39] | 97% |

Test system: Septoria tritici
Assay: In vivo preventive test on Septoria tritici (leaf spot on wheat)
Settings: wheat plants, preventive spray, 500 ppm, grading 24 days after contamination
Experimental: Example: In Vivo Preventive Test on Septoria tritici (Leaf Spot on Wheat) […] Wheat plants (“Scipion” variety), sown in starter cups on a 50/50 peat soil-pozzolana substrate and grown at 22° C., are treated at the 1-leaf stage (10 cm height) by spraying with the active ingredient prepared as described above. Plants, used as controls, are treated with the mixture of acetone/tween/DMSO/water not containing the active material. After 24 hours, the plants are contaminated by spraying the leaves with an aqueous suspension of cryopreserved Septoria tritici spores (500 000 spores per ml). […] Grading (% of efficacy) is carried out 24 days after the contamination, in comparison with the control plants. Under these conditions, good (at least 70%) or total protection is observed at a dose of 500 ppm with the following compounds: […]

| Compound | Eff. % |
| --- | --- |
| CC#CCON=Cc1ccc(-c2ccccc2NC(=O)c2c(C(F)F)nn(C)c2Cl)cc1 [Example 22] | 96% |
| CON=Cc1ccc(-c2ccccc2NC(=O)c2c(C(F)F)nn(C)c2Cl)cc1C [Example 25] | 75% |
| CCON=Cc1ccc(-c2ccccc2NC(=O)c2c(C(F)F)nn(C)c2Cl)cc1F [Example 18] | 75% |
| C#CCON=C(C)c1ccc(-c2ccccc2NC(=O)c2c(C(F)F)nn(C)c2F)cc1 [Example 12] | 75% |
| CCON=Cc1ccc(-c2ccccc2NC(=O)c2c(C(F)F)nn(C)c2Cl)cc1C [Example 39] | 92% |

Test system: Sphaerotheca fuliginea
Assay: In vivo preventive test on Sphaerotheca fuliginea (powdery mildew on cucurbits)
Settings: gherkin plants, preventive spray, 500 ppm, grading 12 days after contamination
Experimental: Example: In Vivo Preventive Test on Sphaerotheca fuliginea (Powdery Mildew on Cucurbits) […] Gherkin plants (“Vert petit de Paris” variety), sown in starter cups on a 50/50 peat soil-pozzolana substrate and grown at 24° C., are treated at the Z11 cotyledon stage by spraying with the active ingredient prepared as described above. Plants, used as controls, are treated with the mixture of acetone/tween/DMSO/water not containing the active material. After 24 hours, the plants are contaminated by spraying the cotyledons with an aqueous suspension of Sphaerotheca fuliginea spores (100 000 spores per ml). The spores are collected from infected plants. […] Grading (% of efficacy) is carried out 12 days after the contamination, in comparison with the control plants. Under these conditions, good (at least 70%) or total protection is observed at a dose of 500 ppm with the following compounds: […]

| Compound | Eff. % |
| --- | --- |
| CC#CCON=Cc1ccc(-c2ccccc2NC(=O)c2c(C(F)F)nn(C)c2Cl)cc1 [Example 22] | 100% |
| C#CCON=Cc1ccc(-c2ccccc2NC(=O)c2c(C(F)F)nn(C)c2Cl)cc1 [Example 5] | 100% |
| CON=Cc1ccc(-c2ccccc2NC(=O)c2c(C(F)F)nn(C)c2Cl)cc1C [Example 25] | 100% |
| CCON=Cc1ccc(-c2ccccc2NC(=O)c2c(C(F)F)nn(C)c2Cl)cc1F [Example 18] | 100% |
| CCON=Cc1ccc(-c2ccccc2NC(=O)c2c(C(F)F)nn(C)c2Cl)cc1 [Example 6] | 100% |
| C#CCON=C(C)c1ccc(-c2ccccc2NC(=O)c2c(C(F)F)nn(C)c2F)cc1 [Example 12] | 96% |
| CCON=Cc1ccc(-c2ccccc2NC(=O)c2c(C(F)F)nn(C)c2Cl)cc1C [Example 39] | 100% |

Test system: Uromyces appendiculatus
Assay: In vivo preventive test on Uromyces appendiculatus (bean rust)
Settings: bean plants, preventive spray, 500 ppm, grading 11 days after contamination
Experimental: Example: In Vivo Preventive Test on Uromyces appendiculatus (Bean Rust) […] Bean plants (“Saxa” variety), sown in starter cups on a 50/50 peat soil-pozzolana substrate and grown at 24° C., are treated at the 2-leaf stage (9 cm height) by spraying with the active ingredient prepared as described above. Plants, used as controls, are treated with the mixture of acetone/tween/DMSO/water not containing the active material. After 24 hours, the plants are contaminated by spraying the leaves with an aqueous suspension of Uromyces appendiculatus spores (150 000 spores per ml). […] Grading (% of efficacy) is carried out 11 days after the contamination, in comparison with the control plants. Under these conditions, good (at least 70%) or total protection is observed at a dose of 500 ppm with the following compounds: […]

| Compound | Eff. % |
| --- | --- |
| CC#CCON=Cc1ccc(-c2ccccc2NC(=O)c2c(C(F)F)nn(C)c2Cl)cc1 [Example 22] | 100% |
| C#CCON=Cc1ccc(-c2ccccc2NC(=O)c2c(C(F)F)nn(C)c2Cl)cc1 [Example 5] | 100% |
| CON=Cc1ccc(-c2ccccc2NC(=O)c2c(C(F)F)nn(C)c2Cl)cc1C [Example 25] | 94% |
| CCON=Cc1ccc(-c2ccccc2NC(=O)c2c(C(F)F)nn(C)c2Cl)cc1F [Example 18] | 100% |
| CCON=Cc1ccc(-c2ccccc2NC(=O)c2c(C(F)F)nn(C)c2Cl)cc1 [Example 6] | 100% |
| C#CCON=C(C)c1ccc(-c2ccccc2NC(=O)c2c(C(F)F)nn(C)c2F)cc1 [Example 12] | 100% |
| CCON=Cc1ccc(-c2ccccc2NC(=O)c2c(C(F)F)nn(C)c2Cl)cc1C [Example 39] | 100% |

Test system: not listed separately
Assay: logP by HPLC on reversed phase columns (EEC directive 79/831 Annex V.A8)
Settings: method [a]: LC-MS at pH 2.7, 0.1% formic acid in water / acetonitrile gradient 10% to 95%

| Compound | logP |
| --- | --- |
| CC#CCON=Cc1ccc(-c2ccccc2NC(=O)c2c(C(F)F)nn(C)c2Cl)cc1 [Example 22] | 4.13[a] |
| C#CCON=Cc1ccc(-c2ccccc2NC(=O)c2c(C(F)F)nn(C)c2Cl)cc1 [Example 5] | 3.79[a] |
| CON=Cc1ccc(-c2ccccc2NC(=O)c2c(C(F)F)nn(C)c2Cl)cc1C [Example 25] | 4.04[a] |
| CCON=Cc1ccc(-c2ccccc2NC(=O)c2c(C(F)F)nn(C)c2Cl)cc1F [Example 18] | 4.22[a] |
| CCON=Cc1ccc(-c2ccccc2NC(=O)c2c(C(F)F)nn(C)c2Cl)cc1 [Example 6] | 4.19[a] |
| C#CCON=C(C)c1ccc(-c2ccccc2NC(=O)c2c(C(F)F)nn(C)c2F)cc1 [Example 12] | 3.8[a] |
| CCON=Cc1ccc(-c2ccccc2NC(=O)c2c(C(F)F)nn(C)c2Cl)cc1C [Example 39] | 4.48[a] |
